Results from US20150306096A1, “8'-HYDROXY-DIHYDROERGOTAMINE COMPOUNDS AND COMPOSITIONS” (MAP Pharmaceuticals, Inc., priority 2012, published 2015).
Like-named read-outs stand apart in the source and are kept apart here.

Assays:
Format in all cases: cell-based
[1] = biological target: T1, human Dopamine D2L receptor (Homo sapiens, UniProt P14416); experiment: cAMP HTRF functional assay (agonist/antagonist)
T1 construct: expressed in transfected cells; host or cells: CHO-K1
Method: (§1) Functional profiling of agonist and antagonist activities of 8′-OH DHE on human Adrenergic α1D, Dopamine D2L, and Serotonin 5-HT1B, 5-HT1D, 5-HT1F, 5-HT3, 5-HT4e and 5-HT5A receptors (compared against the parent (DHE) molecule) was carried out as follows.
(§2) The SPA 35S-GTPγS tests were conducted with Euroscreen membrane preparations […]. The HTRF assays were conducted with recombinant cell lines. The receptor accession numbers, cellular background and reference compounds are as reported below in Table 10.
(2) DHE and 8′-OH DHE were tested for agonist and antagonist activity at the human Dopamine D2L receptor using cAMP HTRF assay (in triplicate) at the following nanomolar concentrations: […]
(§3) Agonist activity of the test compounds was expressed as a percentage of the activity of the reference agonist at its EC100 concentration. Antagonist activity of the test compounds was expressed as a percentage of the inhibition of the reference agonist activity at its EC80 concentration. Dose-response data from the test compounds were analyzed with XLfit (IDBS) software using nonlinear regression applied to a sigmoidal dose-response model and the following equation: […]

[2] = biological target: T2, human Adrenergic α1D receptor (Homo sapiens, UniProt P25100); experiment: Aequorin functional assay (agonist/antagonist)
T2 construct: expressed in transfected cells; host or cells: CHO-K1 or HEK-293, coexpressing mitochondrial apoaequorin
T2 sequence (P25100 whole entry): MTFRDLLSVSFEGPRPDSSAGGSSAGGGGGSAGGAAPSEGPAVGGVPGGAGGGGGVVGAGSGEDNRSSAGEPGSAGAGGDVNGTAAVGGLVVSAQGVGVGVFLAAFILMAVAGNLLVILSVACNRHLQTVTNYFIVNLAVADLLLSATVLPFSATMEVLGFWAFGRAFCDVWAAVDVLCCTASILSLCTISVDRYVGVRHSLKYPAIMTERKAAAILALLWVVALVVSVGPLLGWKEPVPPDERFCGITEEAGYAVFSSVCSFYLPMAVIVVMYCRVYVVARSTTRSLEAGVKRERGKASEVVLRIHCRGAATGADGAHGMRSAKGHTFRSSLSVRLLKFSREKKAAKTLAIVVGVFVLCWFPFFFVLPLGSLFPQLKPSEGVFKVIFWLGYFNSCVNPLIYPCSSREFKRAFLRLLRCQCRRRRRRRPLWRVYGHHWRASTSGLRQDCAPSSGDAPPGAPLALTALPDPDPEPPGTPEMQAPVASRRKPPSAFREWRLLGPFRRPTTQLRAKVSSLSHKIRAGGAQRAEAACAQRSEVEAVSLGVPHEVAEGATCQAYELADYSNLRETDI
Method: as §1, §2
(§4) (1) DHE and 8′-OH DHE were tested for agonist and antagonist activity at the human Adrenergic α1D, Serotonin 5-HT3 and Serotonin 5-HT5A receptors using aequorin assay (in triplicate) at the following nanomolar concentrations:
(§5) (5) DHE was tested for agonist and antagonist activity at the human Adrenergic α1D, Serotonin 5-HT3 and Serotonin 5-HT5A receptors using aequorin assay (in triplicate), and at the human Dopamine D2L, Serotonin 5-HT1F and Serotonin 5-HT4E receptors using cAMP HTRF assay (in triplicate) at the following nanomolar concentrations:
(§6) (6) 8′-OH DHE was tested for agonist and antagonist activity at the human Adrenergic α1D, Serotonin 5-HT3 and Serotonin 5-HT5A receptors using aequorin assay (in triplicate), at the human Dopamine D2L, Serotonin 5-HT1F and Serotonin 5-HT4E receptors using cAMP HTRF assay (in triplicate), and at the human Serotonin 5-HT1B and Serotonin 5-HT1D receptors using GTPγS assay (in triplicate) at the following nanomolar concentrations:
(§7) CHO-K1 or HEK-293 cells coexpressing mitochondrial apoaequorin and recombinant human […], or recombinant human Serotonin 5-HT3 receptor, or recombinant human Serotonin 5-HT5A receptor grown to mid-log phase in culture media without antibiotics were detached with PBS-EDTA, centrifuged and resuspended in assay buffer (DMEMHAM's F12 with HEPES, without phenol red+0.1% BSA protease free) at a concentration of 1×10^6 cells/mL. Cells were incubated at RT for at least 4 hours with coelenterazine h. The reference agonist was tested to evaluate performance of the assay on each day of the test and to determine EC50. For agonist testing, 50 μL of cell suspension was mixed with 50 μL of test compound or reference agonist in a 96-well plate. The resulting emission of light was recorded using Hamamatsu Functional Drug Screening System 6000 (FDSS 6000 luminometer). For antagonist testing, 100 μL of the reference agonist at its EC80 was injected on the mix of cells and test compounds, following an incubation of 15 minutes after the first injection. The resulting emission of light was recorded using the FDSS 6000 luminometer. To standardize the emission of recorded light (determination of the ‘100% signal’) across plates and across different experiments, some of the wells contained 100 μM digitonin or a saturating concentration of ATP (20 μM).
as §3

[3] = biological target: T3, human Serotonin 5-HT3 receptor (Homo sapiens, UniProt P46098); experiment: Aequorin functional assay (agonist/antagonist)
T3 construct: expressed in transfected cells; host or cells: CHO-K1 or HEK-293, coexpressing mitochondrial apoaequorin
T3 sequence (P46098 24-478): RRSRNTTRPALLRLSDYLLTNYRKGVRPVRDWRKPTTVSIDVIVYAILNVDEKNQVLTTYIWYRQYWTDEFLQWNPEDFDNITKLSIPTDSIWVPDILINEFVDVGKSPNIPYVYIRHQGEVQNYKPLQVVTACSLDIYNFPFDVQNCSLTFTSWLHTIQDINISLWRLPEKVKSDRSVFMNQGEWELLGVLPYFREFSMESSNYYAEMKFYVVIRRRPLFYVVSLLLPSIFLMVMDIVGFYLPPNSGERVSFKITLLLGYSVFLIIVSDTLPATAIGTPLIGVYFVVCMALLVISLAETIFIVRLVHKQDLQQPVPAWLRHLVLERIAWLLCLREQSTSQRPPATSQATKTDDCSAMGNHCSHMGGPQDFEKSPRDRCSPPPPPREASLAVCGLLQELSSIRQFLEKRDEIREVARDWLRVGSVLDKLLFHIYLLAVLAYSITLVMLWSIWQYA
Method: as §1, §2, §4, §5, §6, §7, §3

[4] = biological target: T4, human Serotonin 5-HT5A receptor (Homo sapiens, UniProt P47898); experiment: Aequorin functional assay (agonist/antagonist)
T4 construct: expressed in transfected cells; host or cells: CHO-K1 or HEK-293, coexpressing mitochondrial apoaequorin
T4 sequence (P47898 whole entry): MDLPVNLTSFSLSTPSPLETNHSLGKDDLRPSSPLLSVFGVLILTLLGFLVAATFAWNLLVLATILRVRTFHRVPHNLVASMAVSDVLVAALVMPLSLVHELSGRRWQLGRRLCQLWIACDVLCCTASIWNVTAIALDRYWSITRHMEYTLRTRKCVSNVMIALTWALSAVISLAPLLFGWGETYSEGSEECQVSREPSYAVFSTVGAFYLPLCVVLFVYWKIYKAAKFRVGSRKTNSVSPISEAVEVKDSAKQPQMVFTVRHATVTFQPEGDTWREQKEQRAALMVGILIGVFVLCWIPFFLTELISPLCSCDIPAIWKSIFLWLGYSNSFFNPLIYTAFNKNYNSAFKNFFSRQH
Method: as §1, §2, §4, §5, §6, §7, §3

T1 sequence (P14416 whole entry): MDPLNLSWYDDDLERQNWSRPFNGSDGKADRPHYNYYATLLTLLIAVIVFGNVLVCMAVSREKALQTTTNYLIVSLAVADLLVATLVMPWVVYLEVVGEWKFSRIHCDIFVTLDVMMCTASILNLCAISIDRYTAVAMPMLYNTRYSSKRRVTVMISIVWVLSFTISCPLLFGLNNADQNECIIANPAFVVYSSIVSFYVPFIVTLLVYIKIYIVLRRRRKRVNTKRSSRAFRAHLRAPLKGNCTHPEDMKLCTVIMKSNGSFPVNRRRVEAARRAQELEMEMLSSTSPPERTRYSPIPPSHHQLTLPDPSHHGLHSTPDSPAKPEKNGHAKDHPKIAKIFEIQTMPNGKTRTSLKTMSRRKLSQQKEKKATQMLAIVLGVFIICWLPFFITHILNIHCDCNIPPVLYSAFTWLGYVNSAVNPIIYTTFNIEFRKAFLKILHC

Row | SMILES | EC50 [1] [nM] | IC50 [2] [nM] | IC50 [3] [µM] | IC50 [4] [nM] | EC50 ([1]; Dopamine D2L, cAMP HTRF, read-out: Functional activity (agonist)) [nM] | IC50 ([2]; Adrenergic α1D, aequorin, vs reference agonist at EC80, read-out: Functional activity (antagonist)) [nM] | IC50 ([3]; Serotonin 5-HT3, aequorin, read-out: Functional activity (antagonist)) [µM] | IC50 ([4]; Serotonin 5-HT5A, aequorin, read-out: Functional activity (antagonist)) [nM]
1 | CN1C[C@H](C(=O)N[C@]2(C)O[C@@]3(O)[C@@H]4CCCN4C(=O)[C@H](Cc4ccccc4)N3C2=O)C[C@@H]2c3cccc4[nH]cc(c34)C[C@H]21 [DHE, Dihydroergotamine] | 0.835 | 1.32 | 3.85 | 48.8 | – | – | – | –
2 | CN1C[C@H](C(=O)N[C@]2(C)O[C@@]3(O)[C@@H]4CCC(O)N4C(=O)[C@H](Cc4ccccc4)N3C2=O)C[C@@H]2c3cccc4[nH]cc(c34)C[C@H]21 (some centres unmarked) [8′-OH DHE, 8′-Hydroxy-Dihydroergotamine] | – | – | – | – | 1.61 | 0.61 | > 10 | 73.3
